Assay results: US10533018B2, “Antimicrobial prochelators to target drug-resistant bacteria and methods of making and using the same” (Duke University, priority 2015, dated 2020)

Experiments:
mammalian cells = assay: LC-MS of spent mammalian cell culture medium; type: in vitro ADME; conditions: spent cell culture medium of cytotoxicity assay; after 4 hours
Method: Suspecting that the cytotoxicity apparent at high concentrations of DB4-51 in the mammalian cells may be due to PT released by non-specific hydrolysis of DB4-51, we analyzed the spent cell culture medium used for the cytotoxicity assay by LC-MS and found 50-60% loss of detectable, intact prochelator compared to the non-incubated controls after 4 hours.

E. coli = type: cell-based; conditions: checkerboard, LB, OD600
Excerpt: Further evidence for the influence of bioavailable copper on the IC50 of DB4-51 was obtained by using a checkerboard assay. […] Serial dilutions of DB4-51 in LB were arrayed against dilutions of chelator (BCS and EDTA). The antagonism exists between our prochelator, DB4-51, and the strong, extracellular chelators BCS and EDTA. […] However, at lower concentrations, EDTA works antagonistically with DB4-51 by restoring bacterial growth. This trend further underscores the influence that copper and potentially other metals have on the growth inhibitory activity of DB4-51.

Compound: O=C(Cc1ccccc1)N[C@@H]1C(=O)N2C(C(=O)O)=C(CSc3cccc[n+]3[O-])CS[C@H]12 [DB4-51, 2-((((6R,7R)-2-carboxy-8-oxo-7-(2-phenylacetamido)-5-thia-1-azabicyclo[4.2.0]oct-2-en-3-yl)methyl)thio)pyridine 1-oxide]
- loss of detectable, intact prochelator vs non-incubated controls (mammalian cells): 50-60%
- interaction with extracellular chelators BCS and EDTA (E. coli): antagonism
